Experimental data as given in patent US20060035314A1, “Receptors and signalling proteins capable of binding meiotic acting sterols (MAS)” (priority 2000, published 2006).

Test system: Mouse Oocytes
Assay: Microinjection of antisense/sense oligonucleotides into mouse oocytes; FF-MAS-triggered resumption of meiosis (GVBD)
Assay type: cell-based
Conditions: 10 μM FF-MAS (24 hours); added 20 hours after injection of approx. 12 pg of each oligonucleotide; hypoxanthine containing medium
From the text: Two antisense oligonucleotides (20 nucleotides) were utilized for microinjection: 5′-[…]-3′ and 5′-[…]-3′, complementary to the kozak sequence of the mRNA encoded by the cDNA sequence herein designated SAM1a and SAM1b, respectively, both of which are defined in SEQ ID NO: 1 and SEQ ID NO: 3, respectively, shown below. In control experiments, the corresponding sense oligonucleotides were microinjected: 5′-[…]-3′ and 5′-[…]-3′ for mRNA SAM1a and SAM1b, respectively. SAM1a antisense was co-injected with SAM1b antisense from a stock solution containing 1.25 μg/μl of each nucleotide in 10% human serum albumin (hereinafter designated HSA) plus 5 mM Tris (pH value: 7.5). SAM1a sense was co-injected with SAM1b sense from a stock solution containing 1.25 μg/μl of each nucleotide in 10% HSA plus 5 mM Tris (pH value: 7.5). Approximately 12 pg of each oligonucleotide ([…]) were injected into the cytoplasma of individual germinal vesicle (GV)-stage oocytes loaded in a droplet of alpha-MEM supplemented with 0.8% HSA and 3 mM hypoxantine under mineral oil in a 35 mm petri dish on the stage of an inverted microscope. […] The effect of FF-MAS was evaluated after 24 hours of further incubation as the number of oocytes in germinal vesicle breakdown (hereinafter designated GVBD). […]

## CC(C)=CCC[C@@H](C)[C@H]1CC=C2C3=C(CC[C@@]21C)[C@@]1(C)CC[C@H](O)C(C)(C)[C@@H]1CC3 [FF-MAS, 4,4-dimethyl-5α-cholesta-8,14,24-triene-3β-ol]
  GVBD/GVBD + GV: 26/29
